Values quoted from earlier work as cited in US20210319872A1, “DRUG AND DEVICE COMBINATION PRODUCTS WITH IMPROVED SAFETY AND EFFICACY PROFILES” (priority 2016, published 2021).
Read-outs that look alike come from different tables or passages of the source.

CC(=O)O[C@]1(C(C)=O)CC[C@H]2[C@@H]3CCC4=CC(=O)CCC4=C3[C@@H](c3ccc(N(C)C)cc3)C[C@@]21C [Ella]
Headache (in vivo): Neurologic: Headache (18% to 19%)

CCOC(=O)[C@H](CCc1ccccc1)N[C@@H](C)C(=O)N1CCC[C@H]1C(=O)O [Enalapril (Vasotec)]
Angioedema (in vivo): Other: Angioedema (0.1% to 1%)
Dizziness (in vivo): Neurologic: Dizziness (4.3% to 7.9%)
Fatigue (in vivo): Other: Fatigue (3%)
Hyperkalemia (in vivo): Endocrine metabolic: Hyperkalemia (1% to 3.8%)
Hypotension (in vivo): Cardiovascular: Hypotension (0.9% to 6.7%)
Serum creatinine raised (in vivo): raised (0.2% (hypertension) to 20% (hypertension with renal artery

CCCCc1ncc(/C=C(\Cc2cccs2)C(=O)O)n1Cc1ccc(C(=O)O)cc1 [Eprosartan (Teveten)]
Dizziness (in vivo): Neurologic: Dizziness (3.8%)
Fatigue (in vivo): Other: Fatigue (1.4%)
Myalgia (in vivo): Musculoskeletal: Myalgia (1.9%)
Neutropenia (in vivo): Hematologic: Neutropenia (1.3%)
Serious side effects, listed without incidence or only as rare (in vivo): Dermatologic: Edema of face (rare)

NC(=O)N1c2ccccc2C=Cc2ccccc21 [Equetro]
Asthenia (in vivo): 8%
Ataxia (in vivo): 15%
Blurred vision (in vivo): 6%
Constipation (in vivo): 10%
Dizziness (in vivo): 44%
Nausea (in vivo): 29%
Pruritus (in vivo): 8%
Rash (in vivo): 7%
Vomiting (in vivo): 18%
Xerostomia (in vivo): 8%
Common side effect, Cardiovascular (listed without frequency): Cardiovascular: Hypotension
Common side effect, Neurologic (listed without frequency): Somnolence
Common side effect, Ophthalmic (listed without frequency): Nystagmus
Serious side effect, Dermatologic (listed without frequency): Stevens-Johnson syndrome
Serious side effect, Gastrointestinal (listed without frequency): Gastrointestinal: Pancreatitis
Serious side effect, Immunologic (listed without frequency): Immunologic: Drug hypersensitivity syndrome
Serious side effect, Neurologic (listed without frequency): Neurologic: Acute intermittent porphyria
Serious side effect, Other (listed without frequency): Other: Angioedema
Serious side effect, Respiratory (listed without frequency): Respiratory: Pulmonary hypersensitivity

CN(C)CCC[C@@]1(c2ccc(F)cc2)OCc2cc(C#N)ccc21 [Escitalopram (Lexapro)]
Abdominal pain (in vivo): Gastrointestinal: Abdominal pain (2%), Constipation (3% to 6%),
Constipation (in vivo): Gastrointestinal: Abdominal pain (2%), Constipation (3% to 6%),
Diaphoresis (in vivo): Dermatologic: Diaphoresis (3% to 8%)
Diarrhea (in vivo): Diarrhea (6% to 14%), Indigestion (2% to 6%), Nausea (15% to
Disorder of ejaculation (in vivo): Reproductive: Disorder of ejaculation (9% to 14%), Erectile
Dizziness (in vivo): Neurologic: Dizziness (4% to 7%), Headache (24%), Insomnia (7%
Erectile dysfunction (in vivo): dysfunction (3%), Orgasm incapacity (females, 2% to 6%),
Fatigue (in vivo): Other: Fatigue (5% to 8%)
Headache (in vivo): Neurologic: Dizziness (4% to 7%), Headache (24%), Insomnia (7%
Indigestion (in vivo): Diarrhea (6% to 14%), Indigestion (2% to 6%), Nausea (15% to
Insomnia (in vivo): Neurologic: Dizziness (4% to 7%), Headache (24%), Insomnia (7%
Orgasm incapacity (in vivo): dysfunction (3%), Orgasm incapacity (females, 2% to 6%),
Reduced libido (in vivo): Reduced libido (3% to 7%)
Somnolence (in vivo): to 14%), Somnolence (4% to 13%)
Vomiting (in vivo): ≤ 18%), Vomiting (up to 3%), Xerostomia (4% to 9%)
Xerostomia (in vivo): 18%), Vomiting (up to 3%), Xerostomia (4% to 9%)

CCOC(=O)C1=C(C)NC(C)=C(C(=O)OC)C1c1cccc(Cl)c1Cl (centres unmarked) [Felodipine (Plendil)]
Flushing (in vivo): Dermatologic: Flushing (3.9% to 6.9%)
Headache (in vivo): Neurologic: Headache (10.6% to 14.7%)
Hypotension (in vivo): Cardiovascular: Angina, Hypotension (less than 0.5%), Myocardial
Indigestion (in vivo): Gastrointestinal: Indigestion (0.5% to 3.9%)
Peripheral edema (in vivo): Cardiovascular: Peripheral edema (2% to 17.4%)
Upper respiratory infection (in vivo): Respiratory: Upper respiratory infection (0.7% to 3.9%)

CNCCC(Oc1ccc(C(F)(F)F)cc1)c1ccccc1 (centres unmarked) [Fluoxetine (Prozac)]
Anxiety (in vivo): Psychiatric: Anxiety (3% to 15%), Feeling nervous (3% to 14%)
Asthenia (in vivo): Neurologic: Asthenia (7% to 21%), Dizziness (2% to 11%),
Diarrhea (in vivo): Gastrointestinal: Diarrhea (8% to 18%), Indigestion (6% to 10%),
Dizziness (in vivo): Neurologic: Asthenia (7% to 21%), Dizziness (2% to 11%),
Feeling nervous (in vivo): Psychiatric: Anxiety (3% to 15%), Feeling nervous (3% to 14%)
Indigestion (in vivo): Gastrointestinal: Diarrhea (8% to 18%), Indigestion (6% to 10%),
Influenza-like symptoms (in vivo): Other: Influenza-like symptoms (3% to 12%)
Insomnia (in vivo): Insomnia (9% to 33%), Somnolence (5% to 17%), Tremor (3% to
Nausea (in vivo): Loss of appetite (3.8% to 17%), Nausea (12% to 29%), Xerostomia
Pharyngitis (in vivo): Respiratory: Pharyngitis (3% to 11%), Rhinitis (16% to 23%)
Rhinitis (in vivo): Respiratory: Pharyngitis (3% to 11%), Rhinitis (16% to 23%)
Seizure (in vivo): Neurologic: Seizure (0.2%)
Xerostomia (in vivo): (4% to 12%)

CCC(=O)O[C@@H](O[P@](=O)(CCCCc1ccccc1)CC(=O)N1C[C@H](C2CCCCC2)C[C@H]1C(=O)O)C(C)C [Fosinopril (Monopril)]
Cough (in vivo): Respiratory: Cough (2.2% to 9.7%)
Dizziness (in vivo): Neurologic: Dizziness (1.6% to 11.9%)
Hyperkalemia (in vivo): Endocrine metabolic: Hyperkalemia (2.6%)
Hypotension (in vivo): Cardiovascular: Hypotension (2.4% to 4.4%)
Nausea and vomiting (in vivo): Gastrointestinal: Nausea and vomiting (1.2% to 2.2%)

NS(=O)(=O)c1cc(C(=O)O)c(NCc2ccco2)cc1Cl [Furosemide (Lasix)]
Hyperuricemia (incidence) (in vivo): Endocrine metabolic: Hyperuricemia (40%), Hypomagnesemia

NCC1(CC(=O)O)CCCCC1 [Gabapentin (Neurontin)]
Ataxia (in vivo): Neurologic: Ataxia (Adult, 3%; adult and adolescent, 13%),
Disorder of form of thought (in vivo): Psychiatric: Disorder of form of thought (Pediatric, 1.7%),
Disturbance in thinking (in vivo): Disturbance in thinking (2% to 3%), Hostile behavior (Pediatric,
Fatigue (in vivo): Other: Fatigue (3% to 11%), Fever (Pediatric, 10%)
Fever (in vivo): Other: Fatigue (3% to 11%), Fever (Pediatric, 10%)
Hostile behavior (in vivo): 5.2%), Hyperactive behavior (Pediatric, 4.7%), Mood swings
Hyperactive behavior (in vivo): 5.2%), Hyperactive behavior (Pediatric, 4.7%), Mood swings
Mood swings (in vivo): (Pediatric, 6%), Suicidal thoughts
Nausea (in vivo): Gastrointestinal: Nausea (greater than 1%), Vomiting (3.3%)
Nystagmus (in vivo): Nystagmus (Adult and adolescent, 8%)
Peripheral edema (in vivo): Cardiovascular: Peripheral edema (1.7% to 8.3%)
Serious side effect, Dermatologic (in vivo): Dermatologic: Stevens-Johnson syndrome
Serious side effect, Immunologic (in vivo): Immunologic: Drug hypersensitivity syndrome
Serious side effect, Psychiatric (in vivo): (Pediatric, 6%), Suicidal thoughts
Viral disease (in vivo): Immunologic: Viral disease (10.9%)
Vomiting (in vivo): Gastrointestinal: Nausea (greater than 1%), Vomiting (3.3%)

Cc1ccsc1C(=CCCN1CCC[C@@H](C(=O)O)C1)c1sccc1C [Gabitril]
Confusion (in vivo): 5%
Disturbance in speech (in vivo): 4%
Nausea (in vivo): 11%
Pruritus (in vivo): Dermatologic: Pruritus (2%)
Serious side effect, Dermatologic (listed without frequency): Dermatologic: Stevens-Johnson syndrome
Serious side effect, Neurologic (listed without frequency): Seizure, in patients without epilepsy
Serious side effect, Psychiatric (listed without frequency): Psychiatric: Suicidal thoughts
